From US20150176022A1, “HERBICIDE-RESISTANT SUNFLOWER PLANTS, POLYNUCLEOTIDES ENCODING HERBICIDE=RESISTANT ACETO HYDROXY ACID SYNTHASE LARGE SUBUNIT PROTEINS, AND METHODS OF USE” (priority 2013, published 2015)
Several values for one entry are separate records, joined by “and”; a condition that tells them apart may be missing. Equal values may be shown once.

Key:
[1] = system: sunflower genotypes carrying the A122T mutation event; assay: Greenhouse whole-plant imazapir dose response (Example 8), group mean; type: in vivo, Helianthus annuus; settings: 14 DAT; for biomass accumulation (% of untreated), Mean A122T / plant height (% of untreated), Mean A122T / root dry weight (% of untreated), Mean A122T: mean of six A122T genotypes; for Phytotoxicity Index, Mean A122T: mean of three A122T genotypes
Procedure: (§1) A greenhouse study was conducted to quantify and contrast the imazapir sensitivity of the mutants A122T and A205V in different genetic backgrounds at the whole plant level in sunflower. Seeds of the different sunflower lines that were used in this study were obtained under field conditions.
(§2) Seeds were sown in Petri dishes and, after germination, plantlets were transplanted to pots of 10 cm of diameter in a potting media consisting of equal parts of vermiculite, soil and sand. Plants were grown in a greenhouse under natural light conditions supplemented with 400 W sodium halide lamps to provide a 16 hrs daylength. Day/night temperatures were 25 and 20° C., respectively. At the V2 stage 10 plants of each genotype were randomly assigned to each treatment consisting of […] imazapir doses (0, 40, 80, 160, 240, 320, 400 and 480 g ai/ha), and a zero-time biomass determination. Experiment was arranged as a randomized block design with a full factorial (sunflower line×treatment) arrangement of treatments and 10 replications.
(§3) On the day of herbicide application ten plants of each genotype were cut at the cotyledonal node and dried at 60° C. for 48 hrs zero-time for dried weight determination. […] Height was determined as the distance between the cotyledonal node and the apex of each plant. For root biomass determination, each plant was taken from the pot and the potting media was washed out from the roots. Above ground biomass data from each line were converted to biomass accumulation after application by subtracting the appropriate average zero-time biomass from each sample. Dry biomass data were converted to percentages of the untreated control plants within each line to allow direct comparisons between groups.

[2] = system: sunflower genotypes carrying the A205V mutation event; assay: as above; type: in vivo, Helianthus annuus; settings: 14 DAT; for biomass, Dif with control (reduction), A205V / plant height, Dif with Control (height reduction), A205V / root dry weight, Dif with control (reduction), A205V: A205V mean; for biomass accumulation (% of untreated), Mean A205V / root dry weight (% of untreated), Mean A205V / plant height (% of untreated), Mean A205V: mean of six A205V genotypes; for Phytotoxicity Index, Mean A205V: mean of three A205V genotypes
Procedure: as §1, §2, §3

`CC(C)C1(C)N=C(c2ncccc2C(=O)O)NC1=O` (stereo not shown) [imazapir, imazapyr] was tested, and the “biomass accumulation (% of untreated), Mean A122T” value ([1]; 4× (320 g ai/ha)) was 87.8%, the “plant height (% of untreated), Mean A122T” value ([1]; 4× (320 g ai/ha)) was 93.7% and the “root dry weight (% of untreated), Mean A122T” value ([1]; 4× (320 g ai/ha)) was 81.4%. For the same compound, the “biomass accumulation (% of untreated), Mean A122T” value ([1]; 5× (400 g ai/ha)) was 79.3%, the “plant height (% of untreated), Mean A122T” value ([1]; 5× (400 g ai/ha)) was 89.8% and the “root dry weight (% of untreated), Mean A122T” value ([1]; 5× (400 g ai/ha)) was 78.7%. For the same compound, the “biomass accumulation (% of untreated), Mean A122T” value ([1]; 6× (480 g ai/ha)) was 74.6%, the “plant height (% of untreated), Mean A122T” value ([1]; 6× (480 g ai/ha)) was 84.2% and the “root dry weight (% of untreated), Mean A122T” value ([1]; 6× (480 g ai/ha)) was 61.7%. The “Phytotoxicity Index, Mean A122T” value ([1]; 0.5× (40 g ai/ha)) was 0.3, the “Phytotoxicity Index, Mean A122T” value ([1]; 1× (80 g ai/ha)) was 0.3 and the “Phytotoxicity Index, Mean A122T” value ([1]; 2× (160 g ai/ha)) was 0.3. The “Phytotoxicity Index, Mean A122T” value ([1]; 3× (240 g ai/ha)) was 0.3, the “Phytotoxicity Index, Mean A122T” value ([1]; 4× (320 g ai/ha)) was 0.5 and the “Phytotoxicity Index, Mean A122T” value ([1]; 5× (400 g ai/ha)) was 0.8. The “Phytotoxicity Index, Mean A122T” value ([1]; 6× (480 g ai/ha)) was 1.2, the “biomass, Dif with control (reduction), A205V” value (“biomass … (reduction), A205V” below) ([2]; 0.5× (40 g ai/ha)) was 5.5% and the “plant height, Dif with Control (height reduction), A205V” value ([2]; 0.5× (40 g ai/ha)) was 5.6%. The “root dry weight, Dif with control (reduction), A205V” value (“root dry weight … (reduction), A205V” below) ([2]; 0.5× (40 g ai/ha)) was 12.8%, the “biomass … (reduction), A205V” value ([2]; 1× (80 g ai/ha)) was 17.8% and the “plant height, Dif with Control (height reduction), A205V” value ([2]; 1× (80 g ai/ha)) was 10.8%. The “root dry weight … (reduction), A205V” value ([2]; 1× (80 g ai/ha)) was 29.2%, the “biomass … (reduction), A205V” value ([2]; 2× (160 g ai/ha)) was 38.4% and the “plant height, Dif with Control (height reduction), A205V” value ([2]; 2× (160 g ai/ha)) was 30.8%. The “root dry weight … (reduction), A205V” value ([2]; 2× (160 g ai/ha)) was 49.4%, the “biomass … (reduction), A205V” value ([2]; 3× (240 g ai/ha)) was 52.4% and the “plant height, Dif with Control (height reduction), A205V” value ([2]; 3× (240 g ai/ha)) was 49.6%. For the same compound, the “root dry weight … (reduction), A205V” value ([2]; 3× (240 g ai/ha)) was 60.8%, the “biomass … (reduction), A205V” value ([2]; 4× (320 g ai/ha)) was 64.6% and the “plant height, Dif with Control (height reduction), A205V” value ([2]; 4× (320 g ai/ha)) was 66.3%. For the same compound, the “root dry weight … (reduction), A205V” value ([2]; 4× (320 g ai/ha)) was 68.9%, the “biomass … (reduction), A205V” value ([2]; 5× (400 g ai/ha)) was 67.6% and the “plant height, Dif with Control (height reduction), A205V” value ([2]; 5× (400 g ai/ha)) was 68.0%. For the same compound, the “root dry weight … (reduction), A205V” value ([2]; 5× (400 g ai/ha)) was 69.3%, the “biomass … (reduction), A205V” value ([2]; 6× (480 g ai/ha)) was 70.0% and the “plant height, Dif with Control (height reduction), A205V” value ([2]; 6× (480 g ai/ha)) was 68.9% and 69.8%. For the same compound, the “root dry weight … (reduction), A205V” value ([2]; 6× (480 g ai/ha)) was 75.6%, the “biomass accumulation (% of untreated), Mean A205V” value ([2]; 0.5× (40 g ai/ha)) was 94.5% and the “root dry weight (% of untreated), Mean A205V” value ([2]; 0.5× (40 g ai/ha)) was 87.2%. For the same compound, the “biomass accumulation (% of untreated), Mean A205V” value ([2]; 1× (80 g ai/ha)) was 82.2%, the “root dry weight (% of untreated), Mean A205V” value ([2]; 1× (80 g ai/ha)) was 70.8% and the “biomass accumulation (% of untreated), Mean A205V” value ([2]; 2× (160 g ai/ha)) was 61.6%. The “plant height (% of untreated), Mean A205V” value ([2]; 2× (160 g ai/ha)) was 69.2%, the “root dry weight (% of untreated), Mean A205V” value ([2]; 2× (160 g ai/ha)) was 50.6% and the “biomass accumulation (% of untreated), Mean A205V” value ([2]; 3× (240 g ai/ha)) was 47.6%. The “plant height (% of untreated), Mean A205V” value ([2]; 3× (240 g ai/ha)) was 50.4%, the “root dry weight (% of untreated), Mean A205V” value ([2]; 3× (240 g ai/ha)) was 39.2% and the “biomass accumulation (% of untreated), Mean A205V” value ([2]; 4× (320 g ai/ha)) was 35.4%. The “plant height (% of untreated), Mean A205V” value ([2]; 4× (320 g ai/ha)) was 33.7%, the “root dry weight (% of untreated), Mean A205V” value ([2]; 4× (320 g ai/ha)) was 31.1% and the “biomass accumulation (% of untreated), Mean A205V” value ([2]; 5× (400 g ai/ha)) was 32.4%. The “plant height (% of untreated), Mean A205V” value ([2]; 5× (400 g ai/ha)) was 32.0%, the “root dry weight (% of untreated), Mean A205V” value ([2]; 5× (400 g ai/ha)) was 30.7% and the “biomass accumulation (% of untreated), Mean A205V” value ([2]; 6× (480 g ai/ha)) was 30.0%. The “plant height (% of untreated), Mean A205V” value ([2]; 6× (480 g ai/ha)) was 30.2%, the “root dry weight (% of untreated), Mean A205V” value ([2]; 6× (480 g ai/ha)) was 24.4% and the “Phytotoxicity Index, Mean A205V” value ([2]; 2× (160 g ai/ha)) was 2.2. The “Phytotoxicity Index, Mean A205V” value ([2]; 3× (240 g ai/ha)) was 5.1, the “Phytotoxicity Index, Mean A205V” value ([2]; 4× (320 g ai/ha)) was 7.4 and the “Phytotoxicity Index, Mean A205V” value ([2]; 5× (400 g ai/ha)) was 8.2. For the same compound, the “Phytotoxicity Index, Mean A205V” value ([2]; 6× (480 g ai/ha)) was 8.2.
